Data: article PMC13059744 (mBio, 2026)

System: cabABC promoter (PcabABC-luc) in S. mitis G22
Experiment: cabABC expression, PcabABC-luc reporter in S. mitis G22
Type: cell-based, Streptococcus mitis
Settings: after CSPG22 treatment in acidic medium; Fig. S3B

With ESRLSRLLRDFIFQIKQ [CSPG22] the “time of peak cabABC expression post-induction” value was “approximately 70 min”.
